Assay results from US9708314B2, “Heterocyclic amide compound” (NISSAN CHEMICAL INDUSTRIES, LTD., priority 2013, dated 2017).

Assays:
Type in all cases: in vivo
Triticum aestivum = assay: Test Example 4: effect on crop by application to foliage (diluvial soil, plastic box); conditions: Application herbicide amount 320 g/ha; foliage application
Procedure, shortened: (§1)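 Scores run from 0 (herbicidal ratio ≤5%) to 5 (≥90%, almost fully withered) and were assessed three weeks after foliar spraying. Seedlings had been raised for 14 days at 25-30° C in sterilized diluvial soil before treatment, with the emulsion diluted in water to the stated g/ha dose.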

Brassica campestris L. = assay: as above; conditions: Application herbicide amount 320 g/ha; foliage application
Procedure, shortened: as §1

Glycine max = assay: as above; conditions: Application herbicide amount 320 g/ha; foliage application
Procedure, shortened: as §1

[1] = system: Beta vulgaris ssp. vulgaris; assay: as above; conditions: Application herbicide amount 320 g/ha; foliage application
Procedure, shortened: as §1

Zea mays = assay: as above; conditions: Application herbicide amount 320 g/ha; foliage application
Procedure, shortened: as §1

[2] = system: Echinochloa oryzacola Vasing.; assay: Test Example 1: herbicidal activity, application before weed generation in submerged conditions; conditions: Application herbicide amount 320 g/ha; Seventeenth Table
Procedure, shortened: (§2)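 Alluvial soil in Wagner pots flooded to 4 cm water depth; weed seeds sown and 2.5 leaf stage rice seedlings transplanted. Emulsion diluted in water applied to water surface on sowing day at stated g/ha. Greenhouse 25° C. to 30° C.; effects scored 0–5 by herbicidal ratio after three weeks.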

Monochoria vaginalis = assay: as above; conditions: Application herbicide amount 320 g/ha; Seventeenth Table
Procedure, shortened: as §2

Scirpus juncoides = assay: as above; conditions: Application herbicide amount 320 g/ha; Seventeenth Table
Procedure, shortened: as §2

Lolium multiflorum Lam. = assay: Test Example 4: herbicidal effect by application to foliage (diluvial soil, plastic box); conditions: Application herbicide amount 320 g/ha; foliage application
Procedure, shortened: as §1

Apera spica-venti. = assay: as above; conditions: Application herbicide amount 320 g/ha; foliage application
Procedure, shortened: as §1

Galium spurium = assay: as above; conditions: Application herbicide amount 320 g/ha; foliage application
Procedure, shortened: as §1

Alopecurus myosuroides = assay: as above; conditions: Application herbicide amount 320 g/ha; foliage application
Procedure, shortened: as §1

[3] = system: Echinochloa crus-galli var. crus-galli; assay: as above; conditions: Application herbicide amount 320 g/ha; foliage application
Procedure, shortened: as §1

Abutilon theophrasti = assay: as above; conditions: Application herbicide amount 320 g/ha; foliage application
Procedure, shortened: as §1

Chenopodium album = assay: as above; conditions: Application herbicide amount 320 g/ha; foliage application
Procedure, shortened: as §1

Amaranthus retroflexus = assay: as above; conditions: Application herbicide amount 320 g/ha; foliage application
Procedure, shortened: as §1

Setaria viridis = assay: as above; conditions: Application herbicide amount 320 g/ha; foliage application
Procedure, shortened: as §1

Veronica persica = assay: as above; conditions: Application herbicide amount 320 g/ha; foliage application
Procedure, shortened: as §1

Digitaria ciliaris = assay: as above; conditions: Application herbicide amount 320 g/ha; foliage application
Procedure, shortened: as §1

Avena fatua = assay: as above; conditions: Application herbicide amount 320 g/ha; foliage application
Procedure, shortened: as §1

Stellaria media = assay: as above; conditions: Application herbicide amount 320 g/ha; foliage application
Procedure, shortened: as §1

Row | SMILES | e (Triticum aestivum) effect on crop grade (Triticum aestivum) | g (Brassica campestris L.) effect on crop grade (Brassica campestris L.) | d (Glycine max) effect on crop grade (Glycine max) | f (Beta vulgaris ssp. vulgaris) effect on crop grade [1] | c (Zea mays) effect on crop grade (Zea mays) | A: Echinochloa oryzicola Vasing. (herbicidal effect grade) [2] | C: Monochoria vaginalis (herbicidal effect grade) (Monochoria vaginalis) | B: Scirpus juncoides (herbicidal effect grade) (Scirpus juncoides) | K (Lolium multiflorum Lam.) herbicidal effect grade (Lolium multiflorum Lam.) | L (Apera spica-venti.) herbicidal effect grade (Apera spica-venti.) | Q (Galium spurium) herbicidal effect grade (Galium spurium) | J (Alopecurus myosuroides) herbicidal effect grade (Alopecurus myosuroides) | H (Echinochloa crus-galli var. crus-galli) herbicidal effect grade [3] | M (Abutilon theophrasti) herbicidal effect grade (Abutilon theophrasti) | O (Chenopodium album) herbicidal effect grade (Chenopodium album) | N (Amaranthus retroflexus) herbicidal effect grade (Amaranthus retroflexus) | G (Setaria viridis) herbicidal effect grade (Setaria viridis) | R (Veronica persica) herbicidal effect grade (Veronica persica) | F (Digitaria ciliaris) herbicidal effect grade (Digitaria ciliaris) | I (Avena fatua) herbicidal effect grade (Avena fatua) | further results
1 | Cc1nnc(NC(=O)c2ccc(C(F)(F)F)n3c(N(C)C4CCCCC4)nnc23)o1 [1-133] | 0 (Herbicidal ratio of 5% or less (almost no effect)) | 0 (Herbicidal ratio of 5% or less (almost no effect)) | 3 (Herbicidal ratio of 40% or more and less than 70%) | 3 (Herbicidal ratio of 40% or more and less than 70%) | 0 (Herbicidal ratio of 5% or less (almost no effect)) | 5 (Herbicidal ratio of 90% or more (almost completely withered)) | 4 (Herbicidal ratio of 70% or more and less than 90%) | 3 (Herbicidal ratio of 40% or more and less than 70%) | 0 (Herbicidal ratio of 5% or less (almost no effect)) | 0 (Herbicidal ratio of 5% or less (almost no effect)) | 1 (Herbicidal ratio of 5% or more and less than 20%) | 0 (Herbicidal ratio of 5% or less (almost no effect)) | 4 (Herbicidal ratio of 70% or more and less than 90%) | 3 (Herbicidal ratio of 40% or more and less than 70%) | 4 (Herbicidal ratio of 70% or more and less than 90%) | 3 (Herbicidal ratio of 40% or more and less than 70%) | 0 (Herbicidal ratio of 5% or less (almost no effect)) | 2 (Herbicidal ratio of 20% or more and less than 40%) | 3 (Herbicidal ratio of 40% or more and less than 70%) | 0 (Herbicidal ratio of 5% or less (almost no effect)) | P (Stellaria media) herbicidal effect grade (Stellaria media): 4 (Herbicidal ratio of 70% or more and less than 90%)
2 | CCN(C)c1nnc2c(C(=O)Nc3nnc(C)o3)ccc(C(F)(F)F)n12 [1-134] | 1 (Herbicidal ratio of 5% or more and less than 20%) | 4 (Herbicidal ratio of 70% or more and less than 90%) | 3 (Herbicidal ratio of 40% or more and less than 70%) | 5 (Herbicidal ratio of 90% or more (almost completely withered)) | 0 (Herbicidal ratio of 5% or less (almost no effect)) | 3 (Herbicidal ratio of 40% or more and less than 70%) | 2 (Herbicidal ratio of 20% or more and less than 40%) | 3 (Herbicidal ratio of 40% or more and less than 70%) | 1 (Herbicidal ratio of 5% or more and less than 20%) | 1 (Herbicidal ratio of 5% or more and less than 20%) | 3 (Herbicidal ratio of 40% or more and less than 70%) | 1 (Herbicidal ratio of 5% or more and less than 20%) | 5 (Herbicidal ratio of 90% or more (almost completely withered)) | 4 (Herbicidal ratio of 70% or more and less than 90%) | 5 (Herbicidal ratio of 90% or more (almost completely withered)) | 3 (Herbicidal ratio of 40% or more and less than 70%) | 3 (Herbicidal ratio of 40% or more and less than 70%) | 4 (Herbicidal ratio of 70% or more and less than 90%) | 4 (Herbicidal ratio of 70% or more and less than 90%) | 0 (Herbicidal ratio of 5% or less (almost no effect)) | P (Stellaria media) herbicidal effect grade (Stellaria media): 4 (Herbicidal ratio of 70% or more and less than 90%)
3 | CCN(CC)c1nnc2c(C(=O)Nc3nnc(C)o3)ccc(C(F)(F)F)n12 [1-135] | 0 (Herbicidal ratio of 5% or less (almost no effect)) | 0 (Herbicidal ratio of 5% or less (almost no effect)) | 3 (Herbicidal ratio of 40% or more and less than 70%) | 4 (Herbicidal ratio of 70% or more and less than 90%) | 0 (Herbicidal ratio of 5% or less (almost no effect)) | 3 (Herbicidal ratio of 40% or more and less than 70%) | 4 (Herbicidal ratio of 70% or more and less than 90%) | 4 (Herbicidal ratio of 70% or more and less than 90%) | 1 (Herbicidal ratio of 5% or more and less than 20%) | 1 (Herbicidal ratio of 5% or more and less than 20%) | 0 (Herbicidal ratio of 5% or less (almost no effect)) | 1 (Herbicidal ratio of 5% or more and less than 20%) | 4 (Herbicidal ratio of 70% or more and less than 90%) | 3 (Herbicidal ratio of 40% or more and less than 70%) | 5 (Herbicidal ratio of 90% or more (almost completely withered)) | 3 (Herbicidal ratio of 40% or more and less than 70%) | 3 (Herbicidal ratio of 40% or more and less than 70%) | 1 (Herbicidal ratio of 5% or more and less than 20%) | 4 (Herbicidal ratio of 70% or more and less than 90%) | 1 (Herbicidal ratio of 5% or more and less than 20%) | P (Stellaria media) herbicidal effect grade (Stellaria media): 4 (Herbicidal ratio of 70% or more and less than 90%)
